From US20120141491A1, “METHODS AND COMPOSITIONS FOR THE TREATMENT OF CANCERS AND PATHOGENIC INFECTIONS” (priority 2009, published 2012)
“Also recorded” adds a separate entry of the source. Read-outs that look alike come from different tables or passages of the source.

Columns and labels:
Format in all cases: cell-based
[1] = tested on: Saos-2 osteosarcoma cells expressing GFP-LC3; test: Autophagy response by punctate localization of GFP-LC3 to autophagic vacuoles, fluorescence microscopy; settings: for Stimulation of autophagy compared with amino acid and serum starved cells (FIG. 2G): 100 μM; for Stimulation of autophagy compared with amino acid and serum starved cells (FIG. 2G) / Enhancement of autophagy (GFP-LC3 at autophagic vacuoles): enriched (Fed) medium; for Activate Autophagy Response: Table 1; for Induction of autophagy: Table 2; for Localization of GFP-LC3 to autophagic vacuoles (FIG. 4): 100 mM Bcl-targeted compounds, fed Saos2 cells
Experimental: FIGS. 2A-2G. Activation of autophagy by Bcl-XL targeting compounds. The positions of C2 in Site 1 (FIG. 2A), C5 in Site 1 (FIG. 2B), and C8 in Site 2 (FIG. 2C) of Bcl-xl are shown by in silico molecular docking. Saos-2 osteosarcoma cells expressing GFP-LC3 were incubated in enriched (Fed) medium in the presence of C2 (FIG. 2D), C5 (FIG. 2E) and C8 (FIG. 2F) Bcl-targeted compounds. GFP-LC3 is found diffuse throughout the cytosol and nucleus when autophagy is suppressed. Ongoing autophagy can be visualized by the presence of GFP-LC3 at autophagic vacuoles (AVs) that appear as dots (arrows). […] In FIG. 2E, Saos-2 osteosarcoma cells expressing GFP-LC3 were incubated in enriched (Fed) medium in the absence and presence of Bcl-targeted compounds or in medium lacking amino acids and serum (Starved).
(§1) FIG. 4A-4F. Activation of autophagy by Bcl-targeted compounds. The localization of GFP-LC3 to autophagic vacuoles was enhanced by […] Bcl-targeted compounds in Saos-2 osteosarcoma cells. The autophagy response in fed Saos2 cells was measured in the absence and presence of anti-Bcl compounds by visualizing the punctate localization of GFP-LC3 (FIGS. 4A-4C) and RFP-GFP-LC3 (FIGS. 4D-4F) to autophagic vacuoles. In untreated fed cells, the GFP-LC3 is localized uniformly throughout the cell. […] Autophagy in cells expressing RFP-GFP-LC3 (FIGS. 4D-4F) was activated with compound B2-1. Structures containing RFP (red, FIG. 4D) and GFP (green, FIG. 4E) are autophagosomes (arrow), while RFP (red, FIG. 4D) structures are autolysosomes (arrowhead).
(§2) FIGS. 5A-5C. Characterization of proBeclin 1 compounds. Upon ranking 100 NCl compounds by in silico docking to Bcl-xl, the autophagy responses were evaluated in fed Saos-2 cells expressing GFP-LC3 (FIG. 5A). […] Cells were maintained in nutrient-rich medium in the absence and presence of Bcl-targeted compounds for 4 hr. The cells were then solubilized, Beclin 1 complex immunoprecipitated, and the Beclin 1 hound proteins identified by Western blotting (FIG. 5C). The IgG-LC is the immunoglobin light chain of the anti-Beclin 1 antibody that was used to immunoprecipitate the complex. The absence of Bcl-xl is indicative of an inhibition of Beclin 1 binding.
This was done in Saos-2 osteosarcoma cells stably expressing the autophagosome marker, GFP-LC3. In fed cells not undergoing autophagy GFP-LC3 is a soluble protein found throughout the cytosol. In amino acid and serum starved cells, autophagy is activated and GFP-LC3 becomes associated with autophagic vacuoles that can be visualize by fluorescence microscopy.
(§3) When autophagy is suppressed, GFP-LC3 distributes uniformly throughout the cellular cytoplasm (FIG. 4A). Autophagy response can be observed by visualizing the punctuate pattern of GFP-LC3 indicative of the presence of autophagic vacuoles. We can also use tandem-labeled LC3, RFP-GFP-LC3 to better assess the dynamics of the autophagy response by visualizing both autophagosomes and autolysosomes (FIG. 4D-4F). […] To further substantiate that the accumulation of GFP-LC3 structures is not due to a blockage of basal autophagy but the positive effects of the compounds on the autophagy response, the autophagy response is validated by quantitative protein turnover measures using radiolabeled amino acids (FIG. 5B). Finally, we determine whether the compound interferes with Beclin 1 binding to Bcl-xl (FIG. 5C) and Bcl-2 as we would suspect if the compound acts through the intended novel mechanism of action.

[2] = tested on: NeuT cells
Experimental: (§4) FIGS. 3A-3E. Effects of Bcl-XL targeted small compounds on the autophagy response and cell survival in NeuT cells. The positions of C4 in Site 1 (FIG. 3A), and C9 in Site 2 (FIG. 3B) of Bcl-xl are shown by in silico molecular docking. NeuT (Her2-positive breast cancer cell line) cells expressing GFP-LC3 were incubated in enriched (Fed) medium in the presence of C4 (FIG. 3C) and C9 (FIG. 3D) Bcl-targeted compounds. GFP-LC3 is found on autophagic vacuole that appear as dots (arrows). In FIG. 3E, the survival of NeuT cells was quantified after 20h of treatment with 0.1-1000 μM of Site 1 (C2 and C4) and Site 2 (C7 and C9) compounds.
(§5) Cell survival is suppressed by Bcl2-targeted compounds: Next, we examined the effects of the Bcl-xl targeted compounds C2, C4, C7, and C9 on autophagy and cell death in Her2/Neu-positive NeuT breast carcinoma cells (FIGS. 3A-E).

[3] = tested on: protein degradation; test: Protein degradation by pulse-chase methods using 14C-valine; settings: for Rates of protein degradation (FIG. 5B): 14C-valine pulse-chase, compared to a control compound, n=6; for Stimulate Protein Degradation: Table 1; for Proteolysis, bar coding of FIG. 5A: black bar stimulated, striped bar inhibited
Experimental: as §2, §3

[4] = tested on: Beclin 1/Bcl binding; test: Beclin 1/Bcl binding by immunoprecipitation with anti-Beclin 1 antibodies and Western blotting; settings: for Inhibit Beclin 1 Binding: Table 1; for Beclin 1 binding to Bcl-xl / Bcl proteins: nutrient-rich medium, 4 hr
Description: FIGS. 5A-5C. Characterization of proBeclin 1 compounds. […] Cells were maintained in nutrient-rich medium in the absence and presence of Bcl-targeted compounds for 4 hr. The cells were then solubilized, Beclin 1 complex immunoprecipitated, and the Beclin 1 hound proteins identified by Western blotting (FIG. 5C). The IgG-LC is the immunoglobin light chain of the anti-Beclin 1 antibody that was used to immunoprecipitate the complex.
Autophagy response can be observed by visualizing the punctuate pattern of GFP-LC3 indicative of the presence of autophagic vacuoles. We can also use tandem-labeled LC3, RFP-GFP-LC3 to better assess the dynamics of the autophagy response by visualizing both autophagosomes and autolysosomes (FIG. 4D-4F). […] Finally, we determine whether the compound interferes with Beclin 1 binding to Bcl-xl (FIG. 5C) and Bcl-2 as we would suspect if the compound acts through the intended novel mechanism of action.

[5] = tested on: Saos2 cells expressing RFP-GFP-LC3; test: Autophagy flux with tandem-labeled RFP-GFP-LC3 (autophagosomes and autolysosomes); settings: fed Saos2 cells; listed as B2-1
Experimental: as §1
When autophagy is suppressed, GFP-LC3 distributes uniformly throughout the cellular cytoplasm (FIG. 4A). Autophagy response can be observed by visualizing the punctuate pattern of GFP-LC3 indicative of the presence of autophagic vacuoles. […] To further substantiate that the accumulation of GFP-LC3 structures is not due to a blockage of basal autophagy but the positive effects of the compounds on the autophagy response, the autophagy response is validated by quantitative protein turnover measures using radiolabeled amino acids (FIG. 5B). […]

[6] = tested on: NeuT (Her2-positive breast cancer cell line) cells expressing GFP-LC3; test: Autophagy response by GFP-LC3 localization in NeuT cells; settings: enriched (Fed) medium
Experimental: as §4, §5

SMILES | Activate Autophagy Response [1] | Induction of autophagy [1] | Induction of cell death [2] | Stimulate Protein Degradation [3] | Proteolysis, bar coding of FIG. 5A [3] | Inhibit Beclin 1 Binding [4] | Enhancement of autophagy (GFP-LC3 at autophagic vacuoles) [1] | Beclin 1 binding to Bcl-xl / Bcl proteins [4] | Stimulation of autophagy compared with amino acid and serum starved cells (FIG. 2G) [1] | Autophagy in NeuT cells [6] | Localization of GFP-LC3 to autophagic vacuoles (FIG. 4) [1] | also measured
CCCCC(CC)CN1CN(CC(CC)CCCC)CC(C)(N)C1 (stereo not drawn) [NSC17764, 5-pyrimidinamine, 1,3-bis(2-ethylhexyl)hexhydro-5-methyl-] | Yes | Induces | causes cell death | No | inhibited | No |  |  |  |  |  | Stimulation of autophagy compared with amino acid and serum starved cells (FIG. 2G) ([1]; listed as C5): promote autophagy; also recorded: stimulated autophagy to levels seen in amino acid and serum starved cells; Enhancement of autophagy (GFP-LC3 at autophagic vacuoles) ([1]; listed as Bx-11): promotes an accumulation of GFP-LC3 structures; also recorded: promote the accumulation of autophagic vacuoles; Enhancement of autophagy (GFP-LC3 at autophagic vacuoles) ([1]; listed as C5): enhanced autophagy; Rates of protein degradation (FIG. 5B) ([3]; listed as Bx-11): suppressed protein degradation; also recorded: inhibit protein degradation
CN(C)CCCN1CC2CCCCC2C1 (stereo not drawn) [NSC43537, 3-(1,3,3a,4,5,6,7,7a-octahydroisoindol-2-yl)-N,N-dimethylpropan-1-amine] | Yes | NSC 43537 Induces autophagy; not tested for the induction of cell death |  | Yes | stimulated proteolysis | Yes | stimulate autophagy | inhibiting Beclin 1 binding |  |  |  | Autophagy / autophagy flux in cells expressing RFP-GFP-LC3 [5]: activated; also recorded: autophagy flux is enhanced; Rates of protein degradation (FIG. 5B) ([3]; listed as B2-1): elevated; also recorded: stimulate
O=C(C[N+]12CN3CN(CN(C3)C1)C2)c1ccc2ccccc2c1.[Br-] [NSC36400] | Yes | Induces autophagy |  |  |  | No |  |  | promote autophagy | enhanced autophagy |  | Induction of cell death ([2]; Table 2, cells not given): causes cell death
Nc1c(/N=N/c2ccc(S(=O)(=O)Nc3cnccn3)cc2)cc(S(=O)(=O)O)c2ccccc12 [NSC31331] | Yes | Induces autophagy |  |  |  | Yes | stimulate autophagy | interfere with Beclin 1 binding | promote autophagy | induced autophagy | autophagic vacuoles are visualize as dots or ring-like structures | Rates of protein degradation (FIG. 5B) [3]: elevated
Nc1nc(S)c2ncn(C3CC(O)C(COP(=O)(O)O)O3)c2n1 (stereo not drawn) [NSC94668] | Yes | Induces autophagy | causes cell death | Yes |  | No | activate autophagy |  | promote autophagy | enhanced autophagy | autophagic vacuoles are visualize as dots or ring-like structures | Rates of protein degradation (FIG. 5B) ([3]; listed as Bx-22): elevated; also recorded: activate; Beclin 1 binding to Bcl-xl / Bcl proteins ([4]; listed as Bx-22): did not; also recorded: do not appear to affect Beclin 1 binding
